Measured values reported in US8334377B2, “Porphyrin catalysts and methods of use thereof” (The Trustees of Princeton University, priority 2006, dated 2012).

Assays:
[1] = Determination of peroxynitrite decomposition catalysis: rates of reaction between peroxynitrite and iron porphyrins in phosphate buffer; type: biochemical; conditions: phosphate buffer pH=7.4
Description: To screen compounds for peroxynitrite decomposition catalytic activity of the invention, peroxynitrite is prepared and isolated as its sodium salt by the reaction of acidic hydrogen peroxide with sodium nitrite followed by rapid quenching with NaOH as set out by Halfpenny and Robinson, in J. Chem. Soc., 928-938 (1952). Peroxynitrite has an absorbance maximum at 302 nm with an extinction coefficient of 1670 M^−1 cm^−1. Therefore, it is possible to directly observe the decomposition of peroxynitrite by monitoring the change in absorbance at 302 nm by stop-flow spectrophotometric analysis. For example, the decomposition of peroxynitrite at an accelerated rate (relative to the natural decomposition rate of peroxynitrite) upon the addition of the decomposition catalysts of the invention.
A high rate of peroxynitrite decomposition is an important indicator of biological activity in vitro and in vivo. The rates of reaction between peroxynitrite and various iron porphyrins were measured at several different concentrations of catalyst in phosphate buffer (pH=7.4). The ONOO^− decay rate (M^−1s^−1) for FeTDMImP was determined to be […], and the keat, for FeTDCMImP was measured at 4.6×10^5. In the same studies the decay rates for the iron porphyrins FeTDMImP, FeTDCMImP, FeTDPImP (see, e.g., U.S. Pat. No. 6,448,239) were 1.1×10^6. 4.6×10^5 and 1.9×10^6, respectively.

[2] = Stopped-flow spectrometry of peroxynitrite decomposition, absorption of peroxynitrite at 324 nm monitored; type: biochemical; conditions: pH 7.4 phosphate buffer
Description: FIG. 4 is stopped-flow spectroscopy of peroxynitrite decomposition catalyzed by FeTDCImP (12). (A) diode array scan of 10 μM (12) in pH 7.4 PBS mixed with 600 μM, t=2 s; (B) decay of peroxynitrite monitored at 324 nm, condition that same as in A. It was fitted into a first order kinetics model using KinetAssyst software. Data was average of four parallel experiments.
It was rationalized that the electron-withdrawing cationic feature elevated its catalytic activity as compared to anionic porphyrins, while its electron-donating anionic feature lowered its catalytic activity as compared to cationic porphyrins.

COCCOCCn1cc[n+](CCOCCOC)c1-c1c2nc(c(-c3n(CCOCCOC)cc[n+]3CCOCCOC)c3ccc([n-]3)c(-c3n(CCOCCOC)cc[n+]3CCOCCOC)c3nc(c(-c4n(CCOCCOC)cc[n+]4CCOCCOC)c4ccc1[n-]4)C=C3)C=C2.[Fe+3] [FeTDPImP, iron(III) meso-tetrakis(N,N-di-(2-(2-methoxyethoxy)ethyl)-imidazol-2-yl)porphyrin]
decay rates for the iron porphyrins (in the same studies) [1]: 1.9×10^6

iron(III) meso-tetrakis(N,N-dicarboxymethyl)-imidazol-2-yl)porphyrin [FeTDCMImP]
decay rates for the iron porphyrins (in the same studies) [1]: 4.6×10^5
keat [1]: 4.6×10^5
second order rate constant of peroxynitrite decomposition [2]: 430000 M⁻¹ s⁻¹
